From a melting point compilation (Tetko et al.; mined from patent text by program, amines drawn as free bases though some values may be those of a salt)

In the case of `COc1cc2c(cc1OC)S(=O)(=O)CCC(C(=O)N1CCN(C(=O)c3cc(OC)c(OC)c(OC)c3)CC1)=C2`, the melting point was 226 to 229 °C.
`CCC(Oc1ccc(C=Cc2nc[nH]n2)cc1)C(N)=O` (centres undefined) showed a melting point of 150 °C.
`c1ccc(COc2ccc3[nH]c(-c4ccc[nH]4)cc3c2)cc1` gave a melting point of 178 to 182 °C.
`COC[C@H]1CN(c2coc3cc(C(=O)OC)ccc23)C(=O)O1` gave a melting point of 116 °C.
With `CN(CCSc1ccc(NS(C)(=O)=O)cc1)CCc1ccc(NS(C)(=O)=O)cc1` the melting point was 160 to 163 °C.
Compound `N#Cc1ccc(C=Cc2ccc(OCC(O)CO)cc2)cc1` (centres undefined) has a melting point of 172 to 173 °C.
`O=S1(=O)N=CN(C2CC2)c2cc(F)cc(F)c21` showed a melting point of 167 to 168 °C.
Work on `CSc1nc(C)cc2nccn12` yielded a melting point of 67 to 69 °C.
`COc1ccccc1C(c1cccc2ccccc12)C(C)(C#N)C#N` (centres undefined) showed a melting point of 175 to 177 °C.
In the case of `COC(=O)c1cc2cc(C)ccc2nn1`, the melting point was 170 to 172 °C.
With `CCCCNc1nc(N)nc2c1ncn2C1C=CC(CO)C1` (centres undefined) the melting point was 116 to 118 °C.
Work on `Cc1nc(C=Cc2nc3ccc(F)cc3c(=O)n2-c2ccccc2Cl)cs1` yielded a melting point of 231 to 232 °C.
For `CC(C)(c1cc(F)ccc1F)S(=O)(=O)c1ccc(Cl)cc1`, the melting point was 147 to 148 °C.
Compound `O=c1oc(-c2ccccc2)cc(O)c1SCCCCc1ccccc1` has a melting point of 103 to 105 °C.
In the case of `Nc1ncnc2[nH]c(Br)c(-c3ccc(Oc4ccccc4)cc3)c12`, the melting point was 282 to 283 °C.
`CCCCCCCCCC=[N+]([O-])CCCCCCCCCC` showed a melting point of 63 to 65 °C.
Work on `O=C(Nc1ccc(Oc2ccnc(N3CCC(O)CC3)n2)c2ccccc12)c1cc(F)cc(N2CCOCC2)c1` yielded a melting point of 106 to 108 °C.
In the case of `CCOC(=O)/C=C/c1ccc(OCCC(C)(C)O)cc1Oc1ncc(C(F)(F)F)cc1Cl`, the melting point was 63.5 to 66 °C.
Compound `NCC(O)c1cccc(C(F)(F)F)c1` (centres undefined) has a melting point of 72 °C.
Work on `CCNn1c(C)nc(N2CCc3ccccc3CC2)c(C#N)c1=O` yielded a melting point of 172 to 174 °C.
With `Cc1cn(C2CCCCC2)c(=O)[nH]c1=S` the melting point was 177 to 178 °C.
In the case of `O=[N+]([O-])c1cnc(N2CCN3CCC2CC3)nc1`, the melting point was 135 to 139 °C.
Work on `CC(C)(C)[Si](C)(C)OCCn1nc(C=O)cc1C=O` yielded a melting point of 63 to 64 °C.
For `c1cc2cc(CSc3nnc(-c4ccc5c(c4)CCO5)o3)ccc2o1`, the melting point was 145 to 147 °C.
Work on `N#Cc1ncc(F)cc1O` yielded a melting point of 201 °C.
`COC(=O)c1cccc(NC(=O)CSC(C)=O)c1` gave a melting point of 118 to 120 °C.
With `COC(F)(F)C(F)(F)C(N)=O` the melting point was 78 to 80 °C.
With `O=C(O)c1ccc(CN(C2CCOCC2)S(=O)(=O)c2ccc(Cl)cc2)cc1` the melting point was 218 to 219 °C.
`COC(=O)Cc1cccc(NC(=O)NCC(=O)N2[C@@H](c3ccccc3)SC[C@H]2C(=O)OC(C)(C)C)c1` gave a melting point of 69 °C.
Compound `O=C(O)c1ccccc1C(=O)NCCCn1ccnc1` has a melting point of 160 to 162 °C.
In the case of `CSC1C(=O)Nc2ccc(C(F)(F)F)cc21` (centres undefined), the melting point was 136 to 138 °C.
`NCC1Cc2cc(-c3ccccc3)cc(-c3cc(Cl)ccc3Cl)c2O1` (centres undefined) showed a melting point of 159 to 162 °C.
`CCCCC(=O)Nc1ncc([N+](=O)[O-])s1` showed a melting point of 155 to 156 °C.
`CS(=O)(=O)N1C[C@@H](P(=O)(c2ccccc2)c2ccccc2)C[C@H]1CO` gave a melting point of 138 to 139 °C.
`CC(C)c1c(CO)c(-c2ccc(F)cc2)nc2ccccc12` gave a melting point of 208 to 210 °C.
Compound `O=c1[nH]c2ccccc2cc1CN1CC=C(/C=C/c2ccccc2)CC1` has a melting point of 258 to 260 °C.
Work on `O=CC=CC(=C(c1ccc(F)cc1)c1ccc(F)cc1)n1cnnn1` yielded a melting point of 152 to 154 °C.
Compound `O=C(O)Cc1ccc(OCc2ccccc2)c(OCc2ccccc2)c1` has a melting point of 112 to 113 °C.
For `CC(=NNc1ccc(C2=NNC(=O)CC2C)cc1)c1cc(O)cc(O)c1` (centres undefined), the melting point was 162 to 166 °C.
In the case of `O=S(=O)(c1ccc(Cl)cc1)N1CCC[C@@H](Nc2nccc(-c3c(-c4cccc(CO)c4)nc4sccn34)n2)C1`, the melting point was 150 to 155 °C.
With `CS(=O)(=O)c1ccc(-c2cccn2-c2ccc(Cl)cc2)cc1` the melting point was 184 to 188 °C.
For `COC(=O)c1ccc(C=C2Cc3ccccc3C2=O)cc1`, the melting point was 194 to 198 °C.
For `O=C1CC(Sc2nnc(S)s2)C(=O)O1` (centres undefined), the melting point was 194 to 196 °C.
Compound `CCc1nnc(CCc2ccc(NC(=O)/C=C/c3cnn(C)c3-c3ccc(F)cc3)cc2)o1` has a melting point of 167 to 168 °C.
`NS(=O)(=O)c1cc(C(=O)O)cc(SCc2ccccc2)c1Cl` gave a melting point of 241 to 242 °C.
With `CCOC(=O)C(=CNc1ccc(OCC)c(C)n1)C(=O)OCC` the melting point was 132 to 138 °C.
With `Nc1nc(-c2ccc([N+](=O)[O-])cc2)c[nH]1` the melting point was 235 to 240 °C.
`C=Cn1cc(C(=O)O)c(=O)c2cnc(N3CCN(C)CC3)nc21` gave a melting point of 233 to 234 °C.
`CCOP(=O)(OCC)OC(=Cc1nccn1C)C(F)(F)F` showed a melting point of 54 to 64 °C.
Work on `COC(=O)C(=O)c1c(F)cc(OCCOc2ccc3ccccc3c2)cc1F` yielded a melting point of 130 to 131 °C.
Work on `COc1cc(C=O)ccc1OCc1coc(-c2ccco2)n1` yielded a melting point of 138 to 139 °C.
In the case of `N#Cc1c(CNS(=O)(=O)c2c(F)cccc2F)nn(-c2ccc(Cl)cc2Cl)c1-c1ccc(O)cc1`, the melting point was 196 °C.
Work on `CN(Cc1ccccc1)c1ccc(C(=O)c2ccccc2)cc1N` yielded a melting point of 93 to 94 °C.
`CCCCCCCc1ccc(C(=O)Oc2ccc(C(=O)O)c(Cl)c2)cc1` showed a melting point of 108 °C.
Compound `O=Cc1ccc(OCCCCCCOc2ccc(C=O)cc2)cc1` has a melting point of 110 to 111 °C.
`CCCCc1nc(Cl)c(C(N)=O)n1Cc1ccc(-c2ccccc2C(=O)O)cc1` gave a melting point of 200 to 202 °C.
`CNC(=O)c1ccc(Nc2nccc(-c3cccnc3)n2)cc1` gave a melting point of 254 to 257 °C.
In the case of `Cc1cccc(NC(=O)NC(CC(=O)N(CC(=O)OC(C)(C)C)c2ccccc2)c2ccccc2)c1` (racemic), the melting point was 164 °C.
`COc1ccc2c(c1)CC(C(F)(F)F)N2C(=O)Nc1ccc(Oc2cccnc2)nc1` (centres undefined) showed a melting point of 202 to 204 °C.
Compound `CCOC(=N)c1ccc(Cl)c(Cl)c1` has a melting point of 62 to 64 °C.
`CS(=O)(=O)c1ccc(C2=C(c3cccc(F)c3)CN(C3CC3)C2=O)cc1` showed a melting point of 179 to 180 °C.
`O=C(c1ccccc1Cl)c1ccccc1[N+](=O)[O-]` showed a melting point of 76 to 79 °C.
For `Nc1nc(Nc2ccc(SC3(Cl)C=CC(C(F)(F)F)=CN3)cc2)sc1C(=O)c1c(Cl)cc(C(F)(F)F)cc1Cl` (centres undefined), the melting point was 130 to 132 °C.
`NC(=S)Nc1cc(-c2ccccc2)nn1-c1ccccc1` showed a melting point of 198 to 201 °C.
Work on `N=C(Nc1ccc(Cl)cc1)Nc1ncccc1OCc1cccc(Cl)c1F` yielded a melting point of 204 to 207 °C.
`COc1nc(OC)nc(SC(C(=O)O)C(C)(C)c2ccccc2)n1` (centres undefined) showed a melting point of 115 to 118 °C.
In the case of `Cc1sc(C)c(Cc2nc3c(F)c(F)cc(F)c3s2)c1CC#N`, the melting point was 145 to 146 °C.
In the case of `c1ccc2c(c1)c1c(N3CCCC3)nc(N3CCCC3)nc1n2CCN1CCOCC1`, the melting point was 138 to 139 °C.
`CC(C=O)c1ccc2cc(OCc3ccc4ccccc4n3)ccc2c1` (centres undefined) gave a melting point of 113 to 115 °C.
For `Nc1nc2c(ncn2OC(CO)CCP(=O)(O)O)c(=O)[nH]1` (centres undefined), the melting point was 177 to 178 °C.
In the case of `CS(=O)(=O)c1ccc(/C(=C(\CCO)C(=O)O)c2ccc(Cl)cc2)cc1`, the melting point was 144 to 145 °C.
Work on `COC(=O)c1ccc(CN(C2CCCCC2O)S(=O)(=O)c2ccc(Cl)cc2)c(F)c1F` (centres undefined) yielded a melting point of 123 to 125 °C.
`CS(=O)(=O)c1ccc(-n2nc(C(F)(F)F)nc2-c2ccc(Br)cc2)nc1` showed a melting point of 143 to 145 °C.
For `CCCCCCCC(=O)c1ccc(CCOS(=O)(=O)c2ccc(C)cc2)cc1`, the melting point was 59 to 60 °C.
Work on `COC(=O)C(C)(C)NC(=O)c1cc2c(n(CC3CCCCC3)c1=O)CCCCCC2` yielded a melting point of 260 to 263 °C.
In the case of `CCn1cc(C(=O)O)c(=O)cc1-c1ccc(O)cc1`, the melting point was 243 to 245 °C.
Compound `c1ccc([C@@]23O[C@@H]2CCc2ccccc23)cc1` has a melting point of 124 to 126 °C.
Work on `CC#Cc1cc(C)c(C2=C(O)C3(CCN(OC)CC3)N(C)C2=O)c(C)c1` yielded a melting point of over 240 °C.
For `O=c1[nH]c2ccccc2c(=O)n1C1CCCCC1`, the melting point was 236 to 238 °C.
`CCOC(=O)c1c(C)n(C(C)=O)c(=O)n1C(C)=O` gave a melting point of 56 to 58 °C.
`CCN(CC)c1nc(-c2ccc(OC)cc2)nc2sc(C#N)c(C)c12` showed a melting point of 154 to 156 °C.
`O=[N+]([O-])c1ccc(Br)cc1-c1cc(-c2cccc(Br)c2)on1` showed a melting point of 195 to 197 °C.
For `COc1cc2cc(-c3ccc4c(c3)OCO4)nc(C)c2cc1OC`, the melting point was 174 °C.
`COc1cc2ncnc(Nc3cccc(Cl)c3F)c2cc1O` gave a melting point of 265 to 268 °C.
For `COc1ccc(CSc2cccnc2C(=O)O)cc1`, the melting point was 170 to 172 °C.
Work on `COC(=O)[C@H]1CO[C@@H](C(C)(C)C)N1C(=O)Cl` yielded a melting point of 78 °C.
`CCC[C@@H]1COC(=O)N1c1nc(-c2ccc(C#N)cc2)cs1` gave a melting point of 131 to 133 °C.
In the case of `CC(Cl)C(=O)Nc1ccccc1C(=O)CC(=O)Nc1nccs1` (centres undefined), the melting point was 204 °C.
With `CC(=O)Oc1ccc(N)cc1C(=O)O` the melting point was 133 to 136 °C.
Work on `Cc1cc([N+](=O)[O-])c(NC(C)C(=O)O)c([N+](=O)[O-])c1` (centres undefined) yielded a melting point of 158 to 161 °C.
`COC(=O)NC1=NC(c2ccc(F)cc2)CCN1` (centres undefined) showed a melting point of 211 to 212 °C.
For `Cc1cc(C)cc(OCC(O)CO)c1` (centres undefined), the melting point was 47 to 49 °C.
In the case of `CC(C)(C)OC(=O)C(Br)=CC1C(C(=O)O)C1(C)C` (centres undefined), the melting point was 76 °C.
With `CCC1(CCCCN2CC=C(c3ccc(Cl)cc3)CC2)C(=O)Nc2ccccc21` (centres undefined) the melting point was 142 to 145 °C.
With `CC(C)CC(C(=O)O)c1cc(OCC2CC2)c(-c2ccc(C(F)(F)F)cc2)cc1F` (centres undefined) the melting point was 110 to 111 °C.
`CN(C)CCC=C1c2ccccc2CCc2ccc(S(C)(=O)=O)cc21` gave a melting point of 109 to 110 °C.
`COc1ccc(Cl)cc1-c1cccc2c1OC(CN)C2` (centres undefined) gave a melting point of 149 to 152 °C.
In the case of `Cc1cc(Sc2sc(-c3ccc(C(F)(F)F)cc3)nc2C)ccc1Cc1nn[nH]n1`, the melting point was 248 °C.
`Cc1nn(-c2ccccn2)c2ncc(C(=O)N(C)c3ccccc3)c(OCc3ccccc3)c12` gave a melting point of 92 to 93 °C.
With `CNC(=O)N(O)C(C)C#Cc1ccc(C(C)C)cc1` (centres undefined) the melting point was 146 to 147 °C.
With `CN(C1CCN(CCC(F)(F)F)CC1)S(=O)(=O)c1ccc(Nc2nccc(Nc3ccc(F)cc3)n2)cc1` the melting point was 195 to 196 °C.
Compound `CC(=O)NC[C@@H]1CCCc2cc(Sc3ccccc3)cc(F)c21` has a melting point of 94.6 to 95.9 °C.
`CC1Cc2cc3c(cc2C(c2ccc([N+](=O)[O-])cc2)=NN1c1n[nH]c(=O)s1)OCO3` (centres undefined) showed a melting point of 288 °C.
In the case of `O=C(N[C@H]1CC[C@H](CCN2CCC(c3ccc(F)c4occc34)CC2)CC1)C1CCOCC1`, the melting point was 208 °C.
